Patent publication US20230390267A1, “TREATMENT REGIMENS FOR EARLY IDIOPATHIC PARKINSON'S DISEASE” (BIAL - PORTELA & CA., S.A., priority 2020, published 2023)

Tests used:
[1] = tested on: PD patients with motor fluctuations; conditions: cited from earlier work
[2] = tested on: PD patients with motor fluctuations; conditions: cited from earlier work; remark: listed apart in the source
[3] = tested on: S-COMT; conditions: peripheral tissues; cited from earlier work
[4] = tested on: patients with early idiopathic Parkinson's disease treated with levodopa/DDCI, with no signs of motor complications; assay: EPSILON Phase III study, safety (treatment emergent adverse events)
Description: The term “treatment-emergent adverse event” is defined as any event not present before exposure to the study drug or any event already present that worsens in either intensity or frequency after first intake of study drug until 2 weeks after last intake of the study drug.
The factors evaluated include: • Treatment-emergent adverse events (TEAEs) including serious adverse events (SAEs) • Laboratory safety tests (biochemistry, hematology, coagulation and urinalysis) • Physical and neurological examinations • Vital signs • 12-lead ECG readings • Columbia-Suicide Severity Rating Scale (C-SSRS) • Modified Minnesota Impulsive Disorders Interview (mMIDI)

Cc1c(Cl)c(C)[n+]([O-])c(Cl)c1-c1noc(-c2cc(O)c(O)c([N+](=O)[O-])c2)n1 [opicapone, 2,5-dichloro-3-[5-(3,4-dihydroxy-5-nitrophenyl)-1,2,4-oxadiazol-3-yl]-4,6-dimethylpyridine 1-oxide]
treatment difference in OFF time for opicapone 50 mg versus entacapone ([1]; p=0.05): 26.2 min
additional OFF-time reduction after switch from entacapone ([1]; patients that ended open-label with opicapone 50 mg): 68 min
patients who reported they were improved ([2]; 3 months): 76.9%
patients judged as having worsened ([2]; UK patients (n=95), 6 months): 6.4%
patients judged as improved since commencing treatment ([2]; UK patients (n=95), 6 months): 85.3%
patients judged as showing 'no change' ([2]; UK patients (n=95), 6 months): 8.4%
patients much improved ([2]; UK patients (n=95), 6 months): 49.4%
patients very much improved ([2]; UK patients (n=95), 6 months): 8.4%
patients reported as much or very much improved (CGI-C) ([2]; opicapone 50 mg, 3 months): 43%
patients showing clinical improvement as judged by the investigators (CGI-C) ([2]; opicapone 50 mg, 3 months): 71.3%
improvement in UPDRS ADL score ([2]; opicapone adjunct therapy): 3.0 points
improvement in UPDRS motor score ([2]; opicapone adjunct therapy): 4.6 points
mean±SD improvement in NMSS sleep/fatigue score versus baseline ([2]; p<0.0001): −1.3+6.3 points
mean±SD improvement in NMSS total score versus baseline ([2]; p<0.0001): −6.8±19.7 points
binding affinity to S-COMT [3]: sub-picomolar
Any Serious TEAE; % ([4]; double blind phase, N = 177): (5.1) %
Any Serious TEAE; n ([4]; double blind phase, N = 177): 9
Any TEAE by Maximum Severity: Mild; % ([4]; double blind phase, N = 177): (29.9) %
Any TEAE by Maximum Severity: Mild; n ([4]; double blind phase, N = 177): 53
Any TEAE by Maximum Severity: Moderate; % ([4]; double blind phase, N = 177): (14.1) %
Any TEAE by Maximum Severity: Moderate; n ([4]; double blind phase, N = 177): 25
Any TEAE by Maximum Severity: Severe; % ([4]; double blind phase, N = 177): (3.4) %
Any TEAE by Maximum Severity: Severe; n ([4]; double blind phase, N = 177): 6
Any TEAE by Worst Relationship: Definitely Related; % ([4]; double blind phase, N = 177): (1.1) %
Any TEAE by Worst Relationship: Definitely Related; n ([4]; double blind phase, N = 177): 2
Any TEAE by Worst Relationship: Not Related (first line, total incl. Unlikely Related); % ([4]; double blind phase, N = 177): (37.3) %
Any TEAE by Worst Relationship: Not Related (first line, total incl. Unlikely Related); n ([4]; double blind phase, N = 177): 66
Any TEAE by Worst Relationship: Not Related (second line, sub-category); % ([4]; double blind phase, N = 177): (36.2) %
Any TEAE by Worst Relationship: Not Related (second line, sub-category); n ([4]; double blind phase, N = 177): 64
Any TEAE by Worst Relationship: Possibly Related; % ([4]; double blind phase, N = 177): (5.6) %
Any TEAE by Worst Relationship: Possibly Related; n ([4]; double blind phase, N = 177): 10
Any TEAE by Worst Relationship: Probably Related; % ([4]; double blind phase, N = 177): (3.4) %
Any TEAE by Worst Relationship: Probably Related; n ([4]; double blind phase, N = 177): 6
Any TEAE by Worst Relationship: Related; % ([4]; double blind phase, N = 177): (10.2) %
Any TEAE by Worst Relationship: Related; n ([4]; double blind phase, N = 177): 18
Any TEAE by Worst Relationship: Unlikely Related; % ([4]; double blind phase, N = 177): (1.1) %
Any TEAE by Worst Relationship: Unlikely Related; n ([4]; double blind phase, N = 177): 2
Any TEAE leading to Death; % ([4]; double blind phase, N = 177): (0.6) %
Any TEAE leading to Death; n ([4]; double blind phase, N = 177): 1
Any TEAE leading to IMP interruption; % ([4]; double blind phase, N = 177): (0.6) %
Any TEAE leading to IMP interruption; n ([4]; double blind phase, N = 177): 1
Any TEAE leading to Withdrawal; % ([4]; double blind phase, N = 177): (1.1) %
Any TEAE leading to Withdrawal; n ([4]; double blind phase, N = 177): 2
Any TEAE; % ([4]; double blind phase, N = 177): (47.5) %
Any TEAE; n ([4]; double blind phase, N = 177): 84
TEAE Arthralgia; % ([4]; double blind phase, N = 177): (2.3) %
TEAE Arthralgia; n ([4]; double blind phase, N = 177): 4
TEAE Back pain; % ([4]; double blind phase, N = 177): (4.5) %
TEAE Back pain; n ([4]; double blind phase, N = 177): 8
TEAE Dizziness; % ([4]; double blind phase, N = 177): (1.1) %
TEAE Dizziness; n ([4]; double blind phase, N = 177): 2
TEAE Dyskinesia; % ([4]; double blind phase, N = 177): (1.7) %
TEAE Dyskinesia; n ([4]; double blind phase, N = 177): 3
TEAE Fall; % ([4]; double blind phase, N = 177): (2.3) %
TEAE Fall; n ([4]; double blind phase, N = 177): 4
TEAE Fatigue; % ([4]; double blind phase, N = 177): (2.8) %
TEAE Fatigue; n ([4]; double blind phase, N = 177): 5
TEAE Gastrointestinal disorders; % ([4]; double blind phase, N = 177): (6.8) %
TEAE Gastrointestinal disorders; n ([4]; double blind phase, N = 177): 12
TEAE General disorders; % ([4]; double blind phase, N = 177): (7.9) %
TEAE General disorders; n ([4]; double blind phase, N = 177): 14
TEAE Headache; % ([4]; double blind phase, N = 177): (0.6) %
TEAE Headache; n ([4]; double blind phase, N = 177): 1
TEAE Hypertension; % ([4]; double blind phase, N = 177): (2.8) %
TEAE Hypertension; n ([4]; double blind phase, N = 177): 5
TEAE Infections and Infestations; % ([4]; double blind phase, N = 177): (15.8) %
TEAE Infections and Infestations; n ([4]; double blind phase, N = 177): 28
TEAE Injury, poisoning and procedural complications; % ([4]; double blind phase, N = 177): (3.4) %
TEAE Injury, poisoning and procedural complications; n ([4]; double blind phase, N = 177): 6
TEAE Insomnia; % ([4]; double blind phase, N = 177): (2.3) %
TEAE Insomnia; n ([4]; double blind phase, N = 177): 4
TEAE Musculoskeletal and connective tissue disorders; % ([4]; double blind phase, N = 177): (10.2) %
TEAE Musculoskeletal and connective tissue disorders; n ([4]; double blind phase, N = 177): 18
TEAE Nausea; % ([4]; double blind phase, N = 177): (2.3) %
TEAE Nausea; n ([4]; double blind phase, N = 177): 4
TEAE Nervous System Disorders; % ([4]; double blind phase, N = 177): (13.6) %
TEAE Nervous System Disorders; n ([4]; double blind phase, N = 177): 24
TEAE Oedema peripheral; % ([4]; double blind phase, N = 177): (2.3) %
TEAE Oedema peripheral; n ([4]; double blind phase, N = 177): 4
TEAE On and off phenomenon; % ([4]; double blind phase, N = 177): (4.5) %
TEAE On and off phenomenon; n ([4]; double blind phase, N = 177): 8
TEAE Psychiatric disorders; % ([4]; double blind phase, N = 177): (7.9) %
TEAE Psychiatric disorders; n ([4]; double blind phase, N = 177): 14
TEAE Tremor; % ([4]; double blind phase, N = 177): (1.1) %
TEAE Tremor; n ([4]; double blind phase, N = 177): 2
TEAE Upper respiratory tract infection; % ([4]; double blind phase, N = 177): (0.6) %
TEAE Upper respiratory tract infection; n ([4]; double blind phase, N = 177): 1
TEAE Urinary tract infection; % ([4]; double blind phase, N = 177): (2.3) %
TEAE Urinary tract infection; n ([4]; double blind phase, N = 177): 4
TEAE Vascular disorders; % ([4]; double blind phase, N = 177): (5.6) %
TEAE Vascular disorders; n ([4]; double blind phase, N = 177): 10
TEAE Vomiting; % ([4]; double blind phase, N = 177): (1.7) %
TEAE Vomiting; n ([4]; double blind phase, N = 177): 3
increase in treatment emergent adverse events including nervous system disorders such as dyskinesia ([4]; opicapone-treated patients vs placebo): no increase
tolerability ([4]; patients without clinically diagnosed motor complications): well tolerated
